In article PMC10935503 (Acta Pharmaceutica Sinica. B, 2023):
Like-named read-outs stand apart in the source and are kept apart here.

Tests used:
MT-4 cells = assay: Cytotoxicity in mock-infected MT-4 cells, MTT method; format: cell-based; details: MTT method
[1] = tested on: HIV-1 K103N + Y181C (RES056); assay: microbe, parasite or virus in culture; format: cell-based; details: for RF RES056: resistance fold, EC50 (mutant strain)/EC50 (WT strain); for SI RES056: selectivity index, ratio of CC50/EC50
HIV-1 F227L + V106A = assay: microbe, parasite or virus in culture; format: cell-based; details: for RF F227L + V106A: resistance fold, EC50 (mutant strain)/EC50 (WT strain); for SI F227L + V106A: selectivity index, ratio of CC50/EC50
HIV-1 Y181C = assay: microbe, parasite or virus in culture; format: cell-based; details: for RF Y181C: resistance fold, EC50 (mutant strain)/EC50 (WT strain); for SI Y181C: selectivity index, ratio of CC50/EC50
HIV-1 WT strain (IIIB) = assay: Anti-HIV-1 activity in MT-4 cells, MTT method, WT strain IIIB; format: cell-based
HIV-1 K103N = assay: microbe, parasite or virus in culture; format: cell-based; details: for RF K103N: resistance fold, EC50 (mutant strain)/EC50 (WT strain); for SI K103N: selectivity index, ratio of CC50/EC50
HIV-1 Y188L = assay: microbe, parasite or virus in culture; format: cell-based; details: for RF Y188L: resistance fold, EC50 (mutant strain)/EC50 (WT strain); for SI Y188L: selectivity index, ratio of CC50/EC50
HIV-1 E138K = assay: microbe, parasite or virus in culture; format: cell-based; details: for RF E138K: resistance fold, EC50 (mutant strain)/EC50 (WT strain); for SI E138K: selectivity index, ratio of CC50/EC50
[2] = Cytotoxicity in mock-infected MT-4 cells, MTT method; format: cell-based; details: human
HIV-1 L100I = assay: microbe, parasite or virus in culture; format: cell-based; details: for EC50: Human immunodeficiency virus 1, MT4, read-out: EC50 L100I; for RF L100I: resistance fold, EC50 (mutant strain)/EC50 (WT strain); for SI L100I: selectivity index, ratio of CC50/EC50
HIV-1 RT = HIV-1 RT (Human immunodeficiency virus type 1 group M subtype B, UniProt P03366); assay: HIV-1 RT inhibition assay; format: biochemical
[3] = tested on: CYP1A2, CYP2C9, CYP2C19, CYP2D6 (range over isoforms); assay: Cytochrome P450 inhibition assay, summary over isoforms; format: in vitro ADME; details: human, human liver microsomes
[4] = cited from earlier work
[5] = In vivo pharmacokinetics in SD rats; set-up: species or system Sprague–Dawley (SD) rats
[6] = read-out: EC50 IIIB, MT-4 cells, MTT method, HIV-1 IIIB (WT)
[7] = Human immunodeficiency virus 1, MT4, read-out: EC50 RES056
[8] = Human immunodeficiency virus 1, MT4, read-out: EC50 F227L + V106A
[9] = Human immunodeficiency virus 1, MT4, read-out: EC50 Y181C
[10] = Human immunodeficiency virus 1, IIIB, MT4, read-out: EC50 IIIB
[11] = Human immunodeficiency virus 1, MT4, read-out: EC50 K103N
[12] = Human immunodeficiency virus 1, MT4, read-out: EC50 Y188L
[13] = Human immunodeficiency virus 1, MT4, read-out: EC50 E138K
[14] = Sprague-Dawley, rat, plasma, iv, 2 mg/kg
[15] = Sprague-Dawley, rat, plasma, po, 20 mg/kg

Compound | RF RES056 [1] | RF F227L + V106A (HIV-1 F227L + V106A) | RF Y181C (HIV-1 Y181C) | RF K103N (HIV-1 K103N) | RF Y188L (HIV-1 Y188L) | RF E138K (HIV-1 E138K) | CC50 at 5 days [2] | EC50 [1, 7] | SI RES056 [1] | EC50 (HIV-1 F227L + V106A; [8]) | SI F227L + V106A (HIV-1 F227L + V106A) | EC50 (HIV-1 L100I) | RF L100I (HIV-1 L100I) | SI L100I (HIV-1 L100I) | EC50 (HIV-1 Y181C; [9]) | SI Y181C (HIV-1 Y181C) | EC50 (HIV-1 WT strain (IIIB); [10]) | EC50 (HIV-1 K103N; [11]) | EC50 (HIV-1 Y188L; [12]) | EC50 (HIV-1 E138K; [13]) | other results
Cc1ccnc2c1NC(=O)c1cccnc1N2C1CC1 [NVP, reference compound] | 18.8 | 30.0 | 32.0 | 30.0 | 37.4 | 1.3 |  |  |  |  |  |  |  |  |  |  |  |  |  |  | CC50 (MT-4 cells): > 15000 nM; EC50 ([1]; read-out: EC50 RES056, MT-4 cells, MTT method, RES056 (K103N + Y181C)): 2220 ± 736 nM; EC50 (HIV-1 F227L + V106A; read-out: EC50 F227L + V106A, MT-4 cells, MTT method): 3540 ± 2750 nM; EC50 (HIV-1 Y181C; read-out: EC50 Y181C, MT-4 cells, MTT method): 3780 ± 2580 nM; EC50 (HIV-1 WT strain (IIIB); [6]): 118 ± 66.9 nM; EC50 (HIV-1 K103N; read-out: EC50 K103N, MT-4 cells, MTT method): 3550 ± 2410 nM; EC50 (HIV-1 Y188L; read-out: EC50 Y188L, MT-4 cells, MTT method): 4420 ± 2470 nM; EC50 (HIV-1 E138K; read-out: EC50 E138K, MT-4 cells, MTT method): 158 ± 112 nM
Cc1cc(C#N)cc(C)c1Oc1nc(NC2CCN(Cc3ccc(N)cc3)CC2)nc2c1SCCC2 [23f, 4-((2-((1-(4-Aminobenzyl)piperidin-4-yl)amino)-7,8-dihydro-6H-thiopyrano[3,2-d]pyrimidin-4-yl)oxy)-3,5-dimethylbenzonitrile] | 93.3 | 26.3 | 2.1 | 1.2 | 3.7 | 3.0 | 12000 ± 6470 nM | 653 ± 236 nM | 18 | 184 ± 8.33 nM | 65 | 55.6 ± 2.68 nM | 7.9 | 216 | 14.7 ± 1.17 nM | 816 | 7 ± 1.04 nM | 8.69 nM | 26.1 ± 3.53 nM | 21.6 ± 0.56 nM | SI K103N (HIV-1 K103N): 1381; SI Y188L (HIV-1 Y188L): 460; SI E138K (HIV-1 E138K): 556
4-((1-(4-(4-Cyano-2,6-dimethylphenoxy)-7,8-dihydro-6H-thiopyrano[3,2-d]pyrimidin-2-yl)piperidin-4-yl)amino)benzenesulfonamide [19b] |  |  |  |  |  |  |  |  |  |  |  |  |  |  |  |  |  |  |  |  | CC50 (MT-4 cells): 3070 ± 300 nM; EC50 IIIB (HIV-1 WT strain (IIIB); MT-4 cells, MTT method, HIV-1 IIIB (WT)): lost potency; EC50 (HIV-1 WT strain (IIIB); [6]): > 16100 nM
Cc1cc(C#N)cc(C)c1Oc1nc(Nc2ccc(C#N)cc2)nc2c1S(=O)(=O)CCC2 [compound 16b, 4-((2-((4-Cyanophenyl)amino)-5,5-dioxido-7,8-dihydro-6H-thiopyrano[3,2-d]pyrimidin-4-yl)oxy)-3,5-dimethylbenzonitrile] | 34.1 | 26.3 | 7.2 | 1.6 | 8.5 | 7.6 | 18700 ± 8010 nM | 49.1 ± 14 nM | 381 | 37.9 ± 21.3 nM | 493 | 21.8 ± 5.65 nM | 15.1 | 858 | 10.4 ± 1.44 nM | 1798 | 1.44 ± 0.17 nM | 2.3 ± 0.15 nM | 12.3 ± 2.27 nM | 10.9 ± 0.32 nM | SI K103N (HIV-1 K103N): 8130; SI Y188L (HIV-1 Y188L): 1520; SI E138K (HIV-1 E138K): 1716; IC50 (HIV-1 RT): 27 ± 11 nM
Cc1cc(/C=C/C#N)cc(C)c1Nc1ccnc(Nc2ccc(C#N)cc2)n1 [RPV, rilpivirine, reference compound] |  | 82 |  | 1.3 | 80 | 5.8 |  |  |  |  |  |  | 1.5 |  |  |  | 1 ± 0.27 nM |  |  |  | IC50 at 10 min [3]: 335 to 9110 nM; Water solubility (Sol.) [4]: < 1 µg/mL; IC50 (HIV-1 RT): 118 ± 27 nM
Cc1cc(/C=C/C#N)cc(C)c1Oc1nc(Nc2ccc(C#N)cc2)nc2c1SCCC2 [15b, (E)-4-((4-(4-(2-Cyanovinyl)-2,6-dimethylphenoxy)-7,8-dihydro-6H-thiopyrano[3,2-d]pyrimidin-2-yl)amino)benzonitrile] | 7.4 | 8.8 | 3.5 | 2.0 | 7.3 | 6.8 | 4890 ± 620 nM | 23.5 ± 14.7 nM | 208 | 27.9 ± 9.17 nM | 175 | 7.26 ± 0.51 nM | 2.3 | 674 | 11.1 ± 3.39 nM | 441 | 3.18 ± 1.21 nM | 6.42 ± 0.4 nM | 23.3 ± 0.48 nM | 21.7 ± 7.55 nM | Times greater activity than ETR, L100I (HIV-1 L100I; ratio of EC50 values vs ETR): 1.3 times; SI K103N (HIV-1 K103N): 762; SI Y188L (HIV-1 Y188L): 210; SI E138K (HIV-1 E138K): 225; IC50 (HIV-1 RT): 101 ± 12 nM
O=C1Nc2ccc(Cl)cc2[C@@](C#CC2CC2)(C(F)(F)F)O1 [EFV, efavirenz, reference compound] |  |  |  |  |  |  | > 6340 nM | 114 ± 55.6 nM |  | 77.4 ± 55.9 nM |  | 57.4 ± 45.9 nM |  |  | 4.94 ± 1.75 nM |  | 2.67 ± 1.73 nM | 99.2 ± 56.8 nM | 93.2 ± 58.9 nM | 4.67 ± 1.38 nM | 
Cc1cc(C#N)cc(C)c1Oc1nc(Nc2ccc(C#N)cc2)nc(N)c1Br [ETR, etravirine, reference compound] | 12.5 | 5.8 | 5.0 | 1.2 | 5.5 |  | 2200 ± 15 nM | 35.2 ± 19.7 nM |  | 16.3 ± 6.24 nM |  | 9.13 ± 6.1 nM | 3.2 |  | 14.1 ± 5.72 nM |  | 2.81 ± 0.47 nM | 3.38 ± 0.69 nM | 15.4 ± 6.07 nM |  | V (iv) ([5]; SD rats, iv 2 mg/kg, mean ± SD, n = 3): 8.85 ± 1.17 L/kg; AUC(0-inf) [5, 14]: 587 ± 48 ng·h/mL; AUC(0-t) [5, 14]: 576 ± 45 ng·h/mL; MRT inf [5, 14]: 1.1 ± 0.34 h; MRT last [5, 14]: 0.93 ± 0.23 h; clearance [5, 14]: 57 mL/min/kg; half-life [5, 14]: 1.8 ± 0.24 h; bioavailability ([5]; Sprague-Dawley, rat, plasma, oral, 20 mg/kg): 7.17%; AUC(0-inf) [5, 15]: 421 ± 153 ng·h/mL; AUC(0-t) [5, 15]: 395 ± 139 ng·h/mL; Cmax [5, 15]: 110 ± 34.1 ng/mL; MRT inf [5, 15]: 3.03 ± 0.14 h; MRT last [5, 15]: 2.55 ± 0.04 h; Tmax [5, 15]: 1 h; half-life [5, 15]: 1.82 ± 0.07 h; solubility (physchem; pH 7, aqueous buffer): < 1 µg/mL; solubility (physchem; pH 7.4, aqueous buffer): < 1 µg/mL; IC50 at 10 min [3]: 277 to 12000 nM; Water solubility (Sol.) [4]: < 1 µg/mL
Cc1cc(C#N)cc(C)c1Oc1nc(NC2CCN(Cc3ccc(NS(C)(=O)=O)cc3)CC2)nc2c1SCCC2 [23g, N-(4-((4-((4-(4-cyano-2,6-dimethylphenoxy)-7,8-dihydro-6H-thiopyrano[3,2-d]pyrimidin-2-yl)amino)piperidin-1-yl)methyl)phenyl)methanesulfonamide] | 138 | 69.6 | ≤ 3.5 | 1.9 | 5.4 | 3.7 | ≥ 3870 nM | 326 ± 185 nM | ≥ 12 | 165 ± 40.8 nM | ≥ 23 | 28 ± 5.38 nM | 11.8 | ≥ 138 | ≤ 8.29 nM | ≥ 467 | 2.37 ± 1.98 nM | 4.59 ± 0.45 nM | 12.7 ± 2.99 nM | 8.66 ± 0.54 nM | SI K103N (HIV-1 K103N): ≥ 843; SI Y188L (HIV-1 Y188L): ≥ 305; SI E138K (HIV-1 E138K): ≥ 447
